Test [1] has as its system human PBMCs of individuals naturally exposed to C. burnetii. The format is cell-based.
The test system of test [2] is splenocytes from tgHLA-DR3 mice. To be noted: in vivo; for # of mice responding: mouse.

Data on 19 sequences can be found in patent US11690902B2 (priority 2018, dated 2023).

As to IKGWQEALTRMKPGAIWEI [p8], the “Human immunoreactive in at least one IGRA+ donor (category)” value (“Human immunoreactive” below) in test [1] is on record as “at least one IGRA + donor”.

Consider QNAFQLQETIVSTEN [p40], for which the “Recognition of HLA class II peptide by any subject” value (from here on “Recognition of HLA class II peptide”) in test [1] was “not recognized by any subject”.

For the sequence DQRITQLKNLNSNNSDSSNDN [p49], the “Recognition of HLA class II peptide” value in test [1] is reported as “not recognized by any subject”.

Turning to SEQITLQTAEKVGLNVA [p1], in test [1], the “Donors recognizing peptides recognized only within group C” value is listed as “multiple donors” and the “Human immunoreactive” value is listed as “at least one IGRA + donor”.

Take VPGYRNASSKRFVAP [p46]: the “Highly antigenic / highly reactive peptide in the human cohort” value in test [1] is “highly antigenic”.

Take VARVSRLKDNFVVLEISKGTEITVQ [p29]: in test [1], the “Donors recognizing peptides recognized solely by past asymptomatic subjects” value is 1/33 and the “Human immunoreactive” value was “at least one IGRA + donor”.

As for SHEVLHAMSRGVEVLA [p6], in test [1], the “Donors recognizing peptides recognized only within group C” value is reported as “multiple donors”.

As to SDMWQALLAGKSGVK [p25], in test [1], the “Donors recognizing peptides recognized solely by past asymptomatic subjects” value is 3/33 and the “Human immunoreactive” value is given as “at least one IGRA + donor”.

QGHIINIGSISSHQV [p18]: the “Highly antigenic / highly reactive peptide in the human cohort” value in test [1] is “highly antigenic”.

As for MMEHLQNITNLVSTGRQGA [p15], the “Highly antigenic / highly reactive peptide in the human cohort” value in test [1] was “highly antigenic”.

GVAYTYNRANAGLPTNK [p45]: in test [1], the “Highly antigenic / highly reactive peptide in the human cohort” value is “highly antigenic”; the “Number of IGRA+ subjects recognizing the peptide” value was 7/56; the “Proportion of IGRA+ donors with IFNγ recall response to the peptide, SI cutoff of 2” value is given as 12.5%.

GLSWLTILKKRNNYRDSFN [p44]: the “Human immunoreactive” value in test [1] is on record as “at least one IGRA + donor”.

Turning to QELEVAQNKAMSDFM [p39], the “Human immunoreactive” value in test [1] was “at least one IGRA + donor”.

For SRAFLTANKNKPGVKT [p7], in test [1], the “Human immunoreactive” value was “at least one IGRA + donor”.

On to LKDVVALRNQAQTAK [p41], for which, in test [2], the “SFU, Mouse 1/3” value worked out at 87; the “SFU, Mouse 2/3” value worked out at 30; the “SFU, Mouse 3/3” value is given as 0; the “SI (stimulation index), Mouse 1/3” value was found to be 5.06. Further, in test [2], the “SI (stimulation index), Mouse 2/3” value was found to be 2.55; the “SI (stimulation index), Mouse 3/3” value came out at 0.98; the “# of mice responding” value was determined as 1. The “Human immunoreactive” value in test [1] was “at least one IGRA + donor”.

In the case of LAQYRELEAFSQFAS [p5], in test [1], the “Human immunoreactive” value was “at least one IGRA + donor”.

PAKINLARTYIAMED [p34]: the “Recognition of HLA class II peptide” value in test [1] is “not recognized by any subject”.

Consider EAVYKGFTPLKAEDIAEA [p19], for which the “Highly antigenic / highly reactive peptide in the human cohort” value in test [1] is on record as “highly antigenic”.

Regarding NAGIIRNKLKIQATIN [p43], in test [2], the “SFU, Mouse 1/3” value is 135; the “SFU, Mouse 2/3” value worked out at 65; the “SFU, Mouse 3/3” value is given as 116; the “SI (stimulation index), Mouse 1/3” value amounted to 4.88. In addition, in test [2], the “SI (stimulation index), Mouse 2/3” value is given as 3.04; the “SI (stimulation index), Mouse 3/3” value came out at 4.48; the “# of mice responding” value stood at 3. Moreover, the “Donors recognizing peptides recognized solely by past asymptomatic subjects” value in test [1] is 3/33.
